Changes are numbered by the printed parent chain.

In article PMC6389425 (Journal of molecular biology, 2019) one finds KM and Kd data, which are given here for two compounds.

The target in experiment [1] is T1, Rg3GUS (Mediterraneibacter gnavus, UniProt Z9EEQ2OTY4).
T1 sequence (Z9EEQ2OTY4 24-777): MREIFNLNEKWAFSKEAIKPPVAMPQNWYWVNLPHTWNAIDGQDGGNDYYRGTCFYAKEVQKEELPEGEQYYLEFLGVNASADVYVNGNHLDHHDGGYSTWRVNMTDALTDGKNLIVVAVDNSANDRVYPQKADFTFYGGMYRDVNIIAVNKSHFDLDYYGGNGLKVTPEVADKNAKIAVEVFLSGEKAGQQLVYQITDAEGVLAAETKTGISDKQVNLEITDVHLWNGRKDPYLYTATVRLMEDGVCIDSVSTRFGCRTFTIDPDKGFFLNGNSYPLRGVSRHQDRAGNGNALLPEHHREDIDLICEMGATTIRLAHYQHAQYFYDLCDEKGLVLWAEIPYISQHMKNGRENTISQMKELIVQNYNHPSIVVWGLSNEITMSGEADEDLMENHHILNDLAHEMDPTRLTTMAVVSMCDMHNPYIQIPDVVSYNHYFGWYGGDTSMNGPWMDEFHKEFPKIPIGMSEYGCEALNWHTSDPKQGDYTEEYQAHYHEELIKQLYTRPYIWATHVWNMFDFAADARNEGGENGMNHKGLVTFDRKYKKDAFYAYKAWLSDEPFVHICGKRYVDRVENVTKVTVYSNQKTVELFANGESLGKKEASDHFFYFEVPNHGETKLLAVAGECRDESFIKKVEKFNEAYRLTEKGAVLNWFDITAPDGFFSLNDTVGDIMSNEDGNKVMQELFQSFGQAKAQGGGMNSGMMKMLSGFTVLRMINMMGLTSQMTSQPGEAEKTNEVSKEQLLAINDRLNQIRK
Nature of the experiment: fluorescence of 4-methylumbelliferone release, initial rates. In kind it is biochemical. The note with it: pH 6.5 HEPES or pH 5.5 acetate; FMN added (5 μL of 25 μM in 50 μL).

Experiment [2] addresses T2, Fp2GUS (Faecalibacterium prausnitzii, UniProt D4K3H3).
T2 sequence (D4K3H3 1-746): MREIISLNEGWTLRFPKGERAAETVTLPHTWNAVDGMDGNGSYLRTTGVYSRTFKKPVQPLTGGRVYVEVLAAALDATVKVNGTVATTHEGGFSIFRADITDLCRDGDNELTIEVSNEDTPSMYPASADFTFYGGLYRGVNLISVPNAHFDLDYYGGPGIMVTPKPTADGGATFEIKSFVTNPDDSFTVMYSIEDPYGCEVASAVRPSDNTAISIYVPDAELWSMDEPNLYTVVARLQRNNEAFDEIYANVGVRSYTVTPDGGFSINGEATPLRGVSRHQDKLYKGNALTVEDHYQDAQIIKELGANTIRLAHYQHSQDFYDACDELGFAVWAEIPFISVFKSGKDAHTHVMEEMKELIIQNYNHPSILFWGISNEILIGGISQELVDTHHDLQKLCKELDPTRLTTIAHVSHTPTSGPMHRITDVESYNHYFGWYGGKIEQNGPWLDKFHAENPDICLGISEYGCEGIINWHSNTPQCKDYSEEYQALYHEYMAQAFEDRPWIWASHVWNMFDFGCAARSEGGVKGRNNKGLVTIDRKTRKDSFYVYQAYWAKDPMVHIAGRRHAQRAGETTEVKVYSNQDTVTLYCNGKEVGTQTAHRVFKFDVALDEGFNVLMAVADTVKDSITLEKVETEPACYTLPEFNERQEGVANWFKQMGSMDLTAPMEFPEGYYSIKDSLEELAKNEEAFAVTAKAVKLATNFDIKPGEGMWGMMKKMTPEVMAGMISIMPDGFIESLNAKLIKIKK
The description is as above. The following applies: pH 6.5 HEPES or pH 5.5 acetate; FMN added (5 μL of 25 μM in 50 μL). In kind it is biochemical.

In experiment [3] the target is T3, RiGUS (Roseburia inulinivorans, UniProt Z9MQZ9NYJ7).
T3 sequence (Z9MQZ9NYJ7 1-736): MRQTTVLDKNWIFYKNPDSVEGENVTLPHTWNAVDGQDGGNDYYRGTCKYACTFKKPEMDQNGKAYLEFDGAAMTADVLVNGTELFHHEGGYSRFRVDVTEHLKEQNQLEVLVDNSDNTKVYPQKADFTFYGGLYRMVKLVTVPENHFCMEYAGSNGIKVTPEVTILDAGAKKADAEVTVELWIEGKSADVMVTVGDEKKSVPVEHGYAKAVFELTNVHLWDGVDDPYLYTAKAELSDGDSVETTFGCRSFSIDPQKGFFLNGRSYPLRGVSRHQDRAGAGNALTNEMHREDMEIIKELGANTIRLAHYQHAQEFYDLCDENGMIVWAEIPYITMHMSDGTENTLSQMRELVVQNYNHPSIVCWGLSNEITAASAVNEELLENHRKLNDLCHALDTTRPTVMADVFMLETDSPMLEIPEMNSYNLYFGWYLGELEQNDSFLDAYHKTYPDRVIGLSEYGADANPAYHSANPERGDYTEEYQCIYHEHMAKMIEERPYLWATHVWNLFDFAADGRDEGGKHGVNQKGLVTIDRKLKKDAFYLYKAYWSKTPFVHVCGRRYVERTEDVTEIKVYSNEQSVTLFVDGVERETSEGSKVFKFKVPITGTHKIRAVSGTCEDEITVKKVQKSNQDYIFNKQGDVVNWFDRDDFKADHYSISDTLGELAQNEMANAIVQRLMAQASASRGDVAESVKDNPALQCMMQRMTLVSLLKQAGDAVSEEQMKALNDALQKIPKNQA
The experiment is described as above. In kind it is biochemical. The note with it: pH 6.5 HEPES or pH 5.5 acetate; FMN added (5 μL of 25 μM in 50 μL).

Experiment [4] concerns the target T4, Rh2GUS (Roseburia hominis, UniProt Z9OYF2D7T4).
T4 sequence (Z9OYF2D7T4 24-780): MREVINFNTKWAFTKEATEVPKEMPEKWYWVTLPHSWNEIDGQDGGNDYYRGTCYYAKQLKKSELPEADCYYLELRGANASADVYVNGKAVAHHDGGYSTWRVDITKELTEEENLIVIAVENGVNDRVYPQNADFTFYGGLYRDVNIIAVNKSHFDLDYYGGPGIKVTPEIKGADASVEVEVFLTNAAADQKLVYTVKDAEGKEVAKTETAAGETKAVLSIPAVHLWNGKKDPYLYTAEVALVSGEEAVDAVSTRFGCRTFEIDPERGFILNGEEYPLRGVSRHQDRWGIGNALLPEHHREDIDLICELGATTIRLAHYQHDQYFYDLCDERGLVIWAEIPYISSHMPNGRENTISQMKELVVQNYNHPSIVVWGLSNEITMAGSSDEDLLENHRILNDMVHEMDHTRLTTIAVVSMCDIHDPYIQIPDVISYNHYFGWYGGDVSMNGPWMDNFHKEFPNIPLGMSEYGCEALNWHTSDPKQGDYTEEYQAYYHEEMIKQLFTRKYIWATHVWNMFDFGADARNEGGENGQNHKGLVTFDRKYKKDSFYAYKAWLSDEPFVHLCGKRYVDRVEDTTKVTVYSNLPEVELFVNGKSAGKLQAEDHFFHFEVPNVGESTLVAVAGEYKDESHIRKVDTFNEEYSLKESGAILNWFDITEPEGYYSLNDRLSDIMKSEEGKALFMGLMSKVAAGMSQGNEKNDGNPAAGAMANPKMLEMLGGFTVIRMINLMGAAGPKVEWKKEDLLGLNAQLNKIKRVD
The description is as above. It is filed as biochemical. The note with it: pH 6.5 HEPES or pH 5.5 acetate; FMN added (5 μL of 25 μM in 50 μL).

Experiment [5] deals with T5, Rh2GUS (Roseburia hominis, UniProt Z9OYF2D7T4, Y182A).
T5 sequence (Z9OYF2D7T4 24-780 Y182A): T4 sequence (Z9OYF2D7T4 24-780) with Y159A
The experiment is described as above. The note with it: pH 6.5 HEPES or pH 5.5 acetate; no FMN added. In kind it is biochemical.

In experiment [6] the target is BvGUS. Nature of the experiment: isothermal titration calorimetry. In kind it is binding, Butyrivibrio fibrisolvens. The following applies: 25 °C; 20 mM HEPES, 50 mM NaCl, pH 7.4. For orientation: ITC needs no label: the signal is the heat of the interaction.
Experiment [7] concerns the target T2, Fp2GUS. Description: isothermal titration calorimetry. In kind it is binding.

On to `Cc1cc(=O)oc2cc(O[C@@H]3O[C@H](C(=O)O)[C@@H](O)[C@H](O)[C@H]3O)ccc12` [4-MUG], for which the KM result in experiment [1] is “Each GUS was able to hydrolyze the fluorescent reporter substrate 4-methylumbelliferyl glucuronide (4-MUG)”; in experiment [2], “Each GUS was able to hydrolyze the fluorescent reporter substrate 4-methylumbelliferyl glucuronide (4-MUG)”; in experiment [3], “Each GUS was able to hydrolyze the fluorescent reporter substrate 4-methylumbelliferyl glucuronide (4-MUG)”; in experiment [4], “Each GUS was able to hydrolyze the fluorescent reporter substrate 4-methylumbelliferyl glucuronide (4-MUG)”; in experiment [5], “FMN-binding mutants of Rh2GUS, Rg3GUS, and BvGUS all display significantly higher KM values than WT”.
With `Cc1cc2nc3c(=O)[nH]c(=O)nc-3n(C[C@H](O)[C@H](O)[C@H](O)COP(=O)(O)O)c2cc1C` [FMN], the figures for the Kd in experiment [6] and in experiment [7] were 1270 nM and 1050 ± 60 nM, respectively.
